# Read-outs that look alike come from different tables or passages of the source.
# Columns and labels:
# [1] = system: liver fibrosis in two rat models; settings: cited from earlier work
# [2] = system: ZSF1 rat model of type 2 diabetes mellitus (T2DM)-induced nephropathy; settings: cited from earlier work
# [3] = in vivo; cited from earlier work
# patients with ADHF = settings: intravenously administered; cited from earlier work
# intraocular pressure = settings: animal models; cited from earlier work
# sGC = settings: cited from earlier work
# [4] = preclinical species; cited from earlier work
# [5] = humans; cited from earlier work
# patient with ME/CFS = settings: single patient, history of Giardia Lamblia infection, ME/CFS for 10 years; cited from earlier work
# [6] = in vivo; cited from earlier work; remark: listed apart in the source
# [7] = system: post-infectious ME/CFS patients
# NT-proBNP = settings: cited from earlier work
# healthy subjects = settings: cited from earlier work
# [8] = system: subjects with heart failure with reduced ejection fraction (HfrEF); settings: initial dose 2.5 mg, titrated to 10 mg at two-week intervals; cited from earlier work
# [9] = system: endothelial dysfunction (ED) models; settings: preclinical ED models and HF patients; cited from earlier work
# isolated sGC = settings: cited from earlier work
# platelet aggregation = settings: via stimulation of cGMP synthesis; cited from earlier work
# [10] = Vericiguat Pool (2.5 mg, 2.5 to 5 mg, 2.5 to 10 mg groups)
compound,measurement,setting,value
"O=C(O)CCCCN(CCc1cc(F)ccc1OCc1ccc(-c2ccc(C(F)(F)F)cc2)cc1)Cc1ccc(C(=O)O)cc1 [BAY 60-2770, 4-({(4-carboxy-butyl)[2-(5-fluoro-2-{[4′-(trifluoromethyl)biphenyl-4-yl]methoxy}phenyl)ethyl]amino}methyl)benzoic acid]",Liver fibrosis,[1],attenuates liver fibrosis
Cc1ccc(OCc2ccc(C(=O)N3CCCCC3)cc2C)c(-c2csc(C3CC4CCC(C3)C4C(=O)O)n2)c1 (stereo not shown) [BI 703704],In vivo activity,[2],displaying in vivo activity
Fc1ccccc1Cc1nc(-c2nc(C(F)(F)F)n[nH]2)cn2ccnc12 [CY6463],Crossing of the blood-brain barrier,[3],readily crosses the blood-brain barrier
O=C(O)CCCCN(CCc1ccccc1OCc1ccc(CCc2ccccc2)cc1)Cc1ccc(C(=O)O)cc1 [Cinaciguat],Hemodynamic effect,patients with ADHF,potent unloading of the heart with arterial vasodilation
Cc1cc(C2CCN(C(=O)C3CC3)CC2)ccc1NC1CCc2cccc(-c3cccc(-n4ncc(C(=O)O)c4C)n3)c21 (stereo not shown) [MGV354],Intraocular pressure,intraocular pressure,significantly lowered intraocular pressure
"[N]=O [NO, nitric oxide]",Increase of sGC activity,sGC,about 200 fold
OC(CNc1nc(-c2cc(-c3ccon3)n(Cc3ccccc3F)n2)ncc1F)(C(F)(F)F)C(F)(F)F [Praliciguat],Clearance route,[4],mainly hepatic clearance
same,Half-life,[4],long half-life
same,Tissue distribution,[4],extensive tissue distribution
same,Pharmacokinetic half-life,[5],consistent with QD dosing
COC(=O)N(C)c1c(N)nc(-c2nn(Cc3ccccc3F)c3ncccc23)nc1N [Riociguat],Symptoms of ME/CFS,patient with ME/CFS,some improvement in symptoms
same,Risk of anemia as side effect,[6],7.8%
COC(=O)Nc1c(N)nc(-c2nn(Cc3ccccc3F)c3ncc(F)cc23)nc1N [Vericiguat],Cognitive function,[7]; 1st patient,improved
same,Sensitivity to light and noise,[7]; 1st patient,less sensitivity to light and noise
same,Fatigue,"[7]; 1st patient (ME/CFS triggered by COVID), 5 mg",improved
same,Activity without getting PEM,"[7]; 1st patient, 5 mg",much more activity was possible without getting PEM
same,"Quality of life, according to the patient",[7]; 2nd patient,significantly improved
same,Effect of treatment (mainly cognitive),"[7]; 2nd patient (postinfectious ME/CFS, Bell of 20), 2.5 mg",only a minor positive effect
same,Cognitive ability,"[7]; 2nd patient, 5 mg, over a period of a few weeks",increase in cognitive ability
same,Feeling of being sick,"[7]; 2nd patient, compared to prior to treatment",reduced
same,Headaches,"[7]; 2nd patient, before medication about 3 days a week",almost completely disappeared
same,Ability for cognitive work without triggering PEM,"[7]; 2nd patient, increased from 1 h",more than 2 hours
same,Headaches,[7]; 3rd patient,disappeared
same,Muscle fasciculation,[7]; 3rd patient,decreased
same,Sensitivity to noise,[7]; 3rd patient,improved
same,Fatigue,"[7]; 3rd patient (ME/CFS triggered by COVID), 2 weeks of 5 mg",improved
same,Ability to work,"[7]; 3rd patient, increased from 1",2 to 3 h
same,Drop in blood pressure,"[7]; human, in vivo",no significant drop in blood pressure
same,Effect on blood pressure,"[7]; human, in vivo",almost no effect on blood pressure
same,Tolerability,"[7]; human, in vivo",very good
same,"Difference of Means vs Placebo - log scale, change in log transformed NT-proBNP from baseline to week 12",NT-proBNP; 1.25 mg,0.0151 log [pg/mL]
same,"Ratio of Geometric Means vs Placebo - Back Transformed, NT-proBNP baseline to week 12",NT-proBNP; 1.25 mg,1.015
same,Reduction in NT-proBNP at 12 weeks compared to placebo,"NT-proBNP; 2.5 mg titrated at two-week intervals to 10 mg, p=0.0483",greatest reduction
same,"Difference of Means vs Placebo - log scale, change in log transformed NT-proBNP from baseline to week 12",NT-proBNP; 2.5 mg,−0.0396 log [pg/mL]
same,"Ratio of Geometric Means vs Placebo - Back Transformed, NT-proBNP baseline to week 12",NT-proBNP; 2.5 mg,0.961
same,"Difference of Means vs Placebo - log scale, change in log transformed NT-proBNP from baseline to week 12",NT-proBNP; 2.5 to 5 mg,−0.0731 log [pg/mL]
same,"Ratio of Geometric Means vs Placebo - Back Transformed, NT-proBNP baseline to week 12",NT-proBNP; 2.5 to 5 mg,0.930
same,"Difference of Means vs Placebo - log scale, change in log transformed NT-proBNP from baseline to week 12",NT-proBNP; 2.5 to 10 mg,−0.2494 log [pg/mL]
same,"Ratio of Geometric Means vs Placebo - Back Transformed, NT-proBNP baseline to week 12",NT-proBNP; 2.5 to 10 mg,0.779
same,"Difference of Means vs Placebo - log scale, change in log transformed NT-proBNP from baseline to week 12",NT-proBNP; [10],−0.1220 log [pg/mL]
same,"Ratio of Geometric Means vs Placebo - Back Transformed, NT-proBNP baseline to week 12",NT-proBNP; [10],0.885
same,Secondary analysis: reduction of NT-proBNP at 12 weeks,NT-proBNP; across vericiguat doses,dose-response relationship
same,"Primary efficacy endpoint, change from baseline in log-transformed NT-proBNP vs placebo","NT-proBNP; pooled vericiguat group, 12 weeks",not significantly different
same,PK interaction profile,"healthy subjects; estimated in in vitro studies, confirmed in healthy subjects",low
same,Severity of most treatment-emergent adverse events,"healthy subjects; human, in vivo",mild-to-moderate severity
same,Tolerability in clinical studies,"healthy subjects; human, in vivo",well-tolerated
same,Efficacy in terms of cardiovascular mortality and HF hospitalization,[8],superior to placebo
same,Vascular function,[9],restores vascular function
same,Risk of anemia as side effect,[6],1.9%
OCc1ccc(-c2nn(Cc3ccccc3)c3ccccc23)o1 [YC-1],Effect on sGC when combined with NO-releasing compounds,isolated sGC,strong synergistic effect
same,sGC stimulation after oxidation or removal of the prosthetic heme moiety,isolated sGC,loss of stimulation
same,Platelet aggregation,platelet aggregation,inhibiting platelet aggregation
